According to ChEMBL document CHEMBL1201861, “Genomics of Drug Sensitity in Cancer screening data, Wellcome Trust Sanger Institute”:
pIC50: −log10 of the molar value.

Legend:
Assay in all cases: cells
COLO-829 = assay type: functional, cell-based, Homo sapiens; settings: Homo sapiens, COLO-829
Description: SANGER: Inhibition of human COLO-829 cell growth in a cell viability assay.

Calu-3 = assay type: functional, cell-based, Homo sapiens; settings: Homo sapiens, Calu-3;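 further: growth inhibition of human Calu-3 cells, determined with a cell viability assay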
Description: SANGER: Inhibition of human Calu-3 cell growth in a cell viability assay.

Calu-6 = assay type: functional, cell-based, Homo sapiens; settings: Homo sapiens, Calu-6;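 further: growth of human Calu-6 cells, read out by a cell viability assay, IC50 marking inhibition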
Description: SANGER: Inhibition of human Calu-6 cell growth in a cell viability assay.

D-247MG = assay type: functional, cell-based, Homo sapiens; settings: Homo sapiens, D-247MG
Description: SANGER: Inhibition of human D-247MG cell growth in a cell viability assay.

D283 Med = assay type: functional, cell-based, Homo sapiens; settings: Homo sapiens, D283 Med
Description: SANGER: Inhibition of human D-283MED cell growth in a cell viability assay.

EGI-1 = assay type: functional, cell-based, Homo sapiens; settings: Homo sapiens, EGI-1;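 further: cell viability readout used to gauge growth inhibition of EGI-1 cells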
Description: SANGER: Inhibition of human EGI-1 cell growth in a cell viability assay.

EOL1 = assay type: functional, cell-based; settings: Homo sapiens;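 further: growth inhibition of EoL-1 cells, read out by a cell viability assay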
Description: SANGER: Inhibition of human EoL-1-cell cell growth in a cell viability assay.

G-402 = assay type: functional, cell-based, Homo sapiens; settings: Homo sapiens, G-402
Description: SANGER: Inhibition of human G-402 cell growth in a cell viability assay.

GOTO = assay type: functional, cell-based, Homo sapiens; settings: Homo sapiens, GOTO;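 further: growth inhibition of GOTO cells, read out by a cell viability assay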
Description: SANGER: Inhibition of human GOTO cell growth in a cell viability assay.

HCC2218 = assay type: functional, cell-based; settings: Homo sapiens;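 further: cell viability assay read-out, with IC50 given as the concentration that inhibits growth of the cell line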
Description: SANGER: Inhibition of human HCC2218 cell growth in a cell viability assay.

HH = assay type: functional, cell-based; settings: Homo sapiens
Description: SANGER: Inhibition of human HH cell growth in a cell viability assay.

HT-29 = assay type: functional, cell-based, Homo sapiens; settings: Homo sapiens, HT-29;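 further: growth inhibition of human HT-29 cells, read out by a cell viability assay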
Description: SANGER: Inhibition of human HT-29 cell growth in a cell viability assay.

HuP-T3 = assay type: functional, cell-based, Homo sapiens; settings: Homo sapiens, HuP-T3;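 further: HuP-T3 cell growth inhibition, read out with a cell viability assay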
Description: SANGER: Inhibition of human HuP-T3 cell growth in a cell viability assay.

KLE = assay type: functional, cell-based, Homo sapiens; settings: Homo sapiens, KLE;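 further: growth inhibition of human KLE cells, read out with a cell viability assay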
Description: SANGER: Inhibition of human KLE cell growth in a cell viability assay.

KP-N-YS = assay type: functional, cell-based; settings: Homo sapiens;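 further: cell viability assay measuring inhibition of cell line growth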
Description: SANGER: Inhibition of human KP-N-YS cell growth in a cell viability assay.

LAMA-84 = assay type: functional, cell-based; settings: Homo sapiens;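 further: growth inhibition of LAMA-84 cells, read out with a cell viability assay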
Description: SANGER: Inhibition of human LAMA-84 cell growth in a cell viability assay.

LOX IMVI = assay type: functional, cell-based; settings: Homo sapiens
Description: SANGER: Inhibition of human LOXIMVI cell growth in a cell viability assay.

LS-1034 = assay type: functional, cell-based, Homo sapiens; settings: Homo sapiens, LS-1034
Description: SANGER: Inhibition of human LS-1034 cell growth in a cell viability assay.

MFH-ino = assay type: functional, cell-based; settings: Homo sapiens;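 further: growth inhibition of human MFH-ino cells, read out by a cell viability assay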
Description: SANGER: Inhibition of human MFH-ino cell growth in a cell viability assay.

MHH-NB-11 = assay type: functional, cell-based, Homo sapiens; settings: Homo sapiens, MHH-NB-11;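 further: growth inhibition of human MHH-NB-11 cells, read out by a cell viability assay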
Description: SANGER: Inhibition of human MHH-NB-11 cell growth in a cell viability assay.

MKN-1 = assay type: functional, cell-based, Homo sapiens; settings: Homo sapiens, MKN-1;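 further: growth inhibition of human MKN1 cells, read out by a cell viability measurement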
Description: SANGER: Inhibition of human MKN1 cell growth in a cell viability assay.

MPP-89 = assay type: functional, cell-based, Homo sapiens; settings: Homo sapiens, MPP-89;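 further: growth inhibition of human MPP-89 cells, read out with a cell viability assay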
Description: SANGER: Inhibition of human MPP-89 cell growth in a cell viability assay.

MZ2-MEL = assay type: functional, cell-based, Homo sapiens; settings: Homo sapiens, MZ2-MEL;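 further: growth inhibition of MZ2-MEL cells read out with a cell viability assay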
Description: SANGER: Inhibition of human MZ2-MEL cell growth in a cell viability assay.

NCI-H1693 = assay type: functional, cell-based, Homo sapiens; settings: Homo sapiens, NCI-H1693;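 further: growth inhibition of the human cell line, read out with a cell viability assay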
Description: SANGER: Inhibition of human NCI-H1693 cell growth in a cell viability assay.

NCI-H1993 = assay type: functional, cell-based, Homo sapiens; settings: Homo sapiens, NCI-H1993;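 further: growth inhibition of the cancer cell line, assessed with a cell viability assay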
Description: SANGER: Inhibition of human NCI-H1993 cell growth in a cell viability assay.

NCI-H2405 = assay type: functional, cell-based, Homo sapiens; settings: Homo sapiens, NCI-H2405;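 further: growth inhibition of the human cell line, read out with a cell viability assay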
Description: SANGER: Inhibition of human NCI-H2405 cell growth in a cell viability assay.

NCI-H292 = assay type: functional, cell-based, Homo sapiens; settings: Homo sapiens, NCI-H292;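 further: growth inhibition of NCI-H292 cells, read out with a cell viability assay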
Description: SANGER: Inhibition of human NCI-H292 cell growth in a cell viability assay.

NCI-H358 = assay type: functional, cell-based, Homo sapiens; settings: Homo sapiens, NCI-H358;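 further: growth inhibition of NCI-H358 human cells, read out with a cell viability assay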
Description: SANGER: Inhibition of human NCI-H358 cell growth in a cell viability assay.

SH-4 = assay type: functional, cell-based, Homo sapiens; settings: Homo sapiens, SH-4;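 further: growth inhibition of SH-4 cells, read out with a cell viability assay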
Description: SANGER: Inhibition of human SH-4 cell growth in a cell viability assay.

SK-MEL-2 = assay type: functional, cell-based, Homo sapiens; settings: Homo sapiens, SK-MEL-2;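 further: growth inhibition of human SK-MEL-2 cells measured with a cell viability assay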
Description: SANGER: Inhibition of human SK-MEL-2 cell growth in a cell viability assay.

SK-MES-1 = assay type: functional, cell-based, Homo sapiens; settings: Homo sapiens, SK-MES-1;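 further: growth inhibition of human SK-MES-1 cells, read out with a cell viability assay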
Description: SANGER: Inhibition of human SK-MES-1 cell growth in a cell viability assay.

SW1783 = assay type: functional, cell-based; settings: Homo sapiens;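 further: cell growth inhibition measured with a viability assay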
Description: SANGER: Inhibition of human SW1783 cell growth in a cell viability assay.

SW 962 = assay type: functional, cell-based, Homo sapiens; settings: Homo sapiens, SW 962;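 further: growth inhibition of human SW962 cells, read out by a cell viability assay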
Description: SANGER: Inhibition of human SW962 cell growth in a cell viability assay.

T-24 = assay type: functional, cell-based, Homo sapiens; settings: Homo sapiens, T-24;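 further: growth inhibition of T-24 cells, read out with a cell viability assay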
Description: SANGER: Inhibition of human T-24 cell growth in a cell viability assay.

T98G = assay type: functional, cell-based, Homo sapiens; settings: Homo sapiens, T98G;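 further: growth inhibition of T98G cells, read out by a cell viability assay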
Description: SANGER: Inhibition of human T98G cell growth in a cell viability assay.

TE-1 = assay type: functional, cell-based, Homo sapiens; settings: Homo sapiens, TE-1
Description: SANGER: Inhibition of human TE-1 cell growth in a cell viability assay.

697 = assay type: functional, cell-based; settings: Homo sapiens
Description: SANGER: Inhibition of human 697 cell growth in a cell viability assay.

786-0 = assay type: functional, cell-based, Homo sapiens; settings: Homo sapiens
Description: SANGER: Inhibition of human 786-0 cell growth in a cell viability assay.

A-375 = assay type: functional, cell-based, Homo sapiens; settings: Homo sapiens, A-375;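 further: growth inhibition of A375 cells, read out with a cell viability assay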
Description: SANGER: Inhibition of human A375 cell growth in a cell viability assay.

A704 = assay type: functional, cell-based, Homo sapiens; settings: Homo sapiens, A704;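 further: growth inhibition of human A704 cells, read out with a cell viability assay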
Description: SANGER: Inhibition of human A704 cell growth in a cell viability assay.

AGS = assay type: functional, cell-based, Homo sapiens; settings: Homo sapiens, AGS;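 further: growth inhibition of AGS cells, determined with a cell viability assay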
Description: SANGER: Inhibition of human AGS cell growth in a cell viability assay.

ASPC1 = assay type: functional, cell-based, Homo sapiens; settings: Homo sapiens, ASPC1;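 further: growth inhibition of AsPC-1 cells, read out with a cell viability assay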
Description: SANGER: Inhibition of human AsPC-1 cell growth in a cell viability assay.

BB65-RCC = assay type: functional, cell-based, Homo sapiens; settings: Homo sapiens, BB65-RCC;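 further: growth inhibition of the cell line, measured with a cell viability assay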
Description: SANGER: Inhibition of human BB65-RCC cell growth in a cell viability assay.

BEN = assay type: functional, cell-based, Homo sapiens; settings: Homo sapiens, BEN;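 further: growth inhibition of the BEN cell line, read out with a cell viability assay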
Description: SANGER: Inhibition of human BEN cell growth in a cell viability assay.

BFTC-905 = assay type: functional, cell-based, Homo sapiens; settings: Homo sapiens, BFTC-905
Description: SANGER: Inhibition of human BFTC-905 cell growth in a cell viability assay.

CAL-12T = assay type: functional, cell-based, Homo sapiens; settings: Homo sapiens, CAL-12T;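 further: growth inhibition of human CAL-12T cells, read out with a cell viability assay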
Description: SANGER: Inhibition of human CAL-12T cell growth in a cell viability assay.

CAL-27 = assay type: functional, cell-based, Homo sapiens; settings: Homo sapiens, CAL-27;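 further: Viability-based readout, IC50 reflecting inhibition of CAL-27 cell growth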
Description: SANGER: Inhibition of human CAL-27 cell growth in a cell viability assay.

TE-11 = assay type: functional, cell-based, Homo sapiens; settings: Homo sapiens, TE-11;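 further: growth inhibition of human TE-11 cells, read out by a cell viability assay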
Description: SANGER: Inhibition of human TE-11 cell growth in a cell viability assay.

TE-8 = assay type: functional, cell-based, Homo sapiens; settings: Homo sapiens, TE-8;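 further: growth inhibition of TE-8 cells, measured with a cell viability readout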
Description: SANGER: Inhibition of human TE-8 cell growth in a cell viability assay.

UMUC3 = assay type: functional, cell-based, Homo sapiens; settings: Homo sapiens, UMUC3;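 further: growth inhibition of human UM-UC-3 cells, read out with a cell viability assay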
Description: SANGER: Inhibition of human UM-UC-3 cell growth in a cell viability assay.

no-10 = assay type: functional, cell-based, Homo sapiens; settings: Homo sapiens;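 further: growth inhibition of no-10 cells, read out with a cell viability assay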
Description: SANGER: Inhibition of human no-10 cell growth in a cell viability assay.

CHL-1 = assay type: functional, cell-based, Homo sapiens; settings: Homo sapiens, CHL-1;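 further: cell growth inhibition, read out with a cell viability assay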
Description: SANGER: Inhibition of human CHL-1 cell growth in a cell viability assay.

CN(C)C/C=C/C(=O)Nc1cc2c(Nc3ccc(F)c(Cl)c3)ncnc2cc1O[C@H]1CCOC1 [AFATINIB]
pIC50 (COLO-829): < 6.30
pIC50 (Calu-3): < 6.30
pIC50 (Calu-6): < 6.30
pIC50 (D-247MG): < 6.30
pIC50 (D283 Med): < 6.30
pIC50 (EGI-1): < 6.30
pIC50 (EOL1): 6.57
pIC50 (G-402): < 6.30
pIC50 (GOTO): < 6.30
pIC50 (HCC2218): 8.01
pIC50 (HH): < 6.30
pIC50 (HT-29): < 6.30
pIC50 (HuP-T3): < 6.30
pIC50 (KLE): < 6.30
pIC50 (KP-N-YS): < 6.30
pIC50 (LAMA-84): < 6.30
pIC50 (LOX IMVI): < 6.30
pIC50 (LS-1034): < 6.30
pIC50 (MFH-ino): < 6.30
pIC50 (MHH-NB-11): < 6.30
pIC50 (MKN-1): < 6.30
pIC50 (MPP-89): < 6.30
pIC50 (MZ2-MEL): < 6.30
pIC50 (NCI-H1693): < 6.30
pIC50 (NCI-H1993): < 6.30
pIC50 (NCI-H2405): < 6.30
pIC50 (NCI-H292): 7.22
pIC50 (NCI-H358): < 6.30
pIC50 (SH-4): < 6.30
pIC50 (SK-MEL-2): < 6.30
pIC50 (SK-MES-1): < 6.30
pIC50 (SW1783): < 6.30
pIC50 (SW 962): < 6.30
pIC50 (T-24): < 6.30
pIC50 (T98G): < 6.30
pIC50 (TE-1): < 6.30
pIC50 697: < 6.30
pIC50 (786-0): < 6.30
pIC50 (A-375): < 6.30
pIC50 (A704): < 6.30
pIC50 (AGS): < 6.30
pIC50 (ASPC1): < 6.30
pIC50 (BB65-RCC): 6.46
pIC50 (BEN): < 6.30
pIC50 (BFTC-905): < 6.30
pIC50 (CAL-12T): < 6.30
pIC50 (CAL-27): 6.75
pIC50 (TE-11): < 6.30
pIC50 (TE-8): < 6.30
pIC50 (UMUC3): < 6.30
pIC50 (no-10): < 6.30
pIC50 (CHL-1): 7.74

O=C(NOCC1CC1)c1ccc(F)c(F)c1Nc1ccc(I)cc1Cl [CI-1040]
pIC50 (COLO-829): 5.79
pIC50 (Calu-3): < 5.00
pIC50 (Calu-6): 5.17
pIC50 (D-247MG): < 5.00
pIC50 (D283 Med): < 5.00
pIC50 (EGI-1): 5.44
pIC50 (EOL1): 7.38
pIC50 (G-402): < 5.00
pIC50 (GOTO): < 5.00
pIC50 (HCC2218): 5.58
pIC50 (HH): 5.35
pIC50 (HT-29): 5.22
pIC50 (HuP-T3): 5.25
pIC50 (KLE): < 5.00
pIC50 (KP-N-YS): < 5.00
pIC50 (LAMA-84): 5.50
pIC50 (LOX IMVI): 5.72
pIC50 (LS-1034): < 5.00
pIC50 (MFH-ino): < 5.00
pIC50 (MHH-NB-11): 5.16
pIC50 (MKN-1): < 5.00
pIC50 (MPP-89): < 5.00
pIC50 (MZ2-MEL): 5.68
pIC50 (NCI-H1693): 5.05
pIC50 (NCI-H1993): < 5.00
pIC50 (NCI-H2405): < 5.00
pIC50 (NCI-H292): 5.73
pIC50 (NCI-H358): 5.35
pIC50 (SH-4): 6.33
pIC50 (SK-MEL-2): 5.80
pIC50 (SK-MES-1): 5.23
pIC50 (SW1783): < 5.00
pIC50 (SW 962): < 5.00
pIC50 (T-24): 5.54
pIC50 (T98G): 5.05
pIC50 (TE-1): < 5.00
pIC50 697: 5.43
pIC50 (786-0): 5.49
pIC50 (A-375): 5.72
pIC50 (A704): < 5.00
pIC50 (AGS): 6.93
pIC50 (ASPC1): 5.27
pIC50 (BB65-RCC): 5.62
pIC50 (BEN): < 5.00
pIC50 (BFTC-905): 5.55
pIC50 (CAL-12T): 5.06
pIC50 (CAL-27): 5.62
pIC50 (TE-11): < 5.00
pIC50 (TE-8): 5.25
pIC50 (UMUC3): 5.29
pIC50 (no-10): < 5.00
pIC50 (CHL-1): 5.55

Nc1ccn([C@@H]2O[C@H](CO)[C@@H](O)[C@@H]2O)c(=O)n1 [CYTARABINE]
pIC50 (COLO-829): 5.73
pIC50 (Calu-3): < 5.70
pIC50 (Calu-6): < 5.70
pIC50 (D-247MG): 5.96
pIC50 (D283 Med): 6.44
pIC50 (EGI-1): 5.95
pIC50 (EOL1): 6.10
pIC50 (G-402): 6.19
pIC50 (GOTO): 6.37
pIC50 (HCC2218): < 5.70
pIC50 (HH): < 5.70
pIC50 (HT-29): < 5.70
pIC50 (HuP-T3): 6.07
pIC50 (KLE): < 5.70
pIC50 (KP-N-YS): < 5.70
pIC50 (LAMA-84): 6.48
pIC50 (LOX IMVI): 6.54
pIC50 (LS-1034): < 5.70
pIC50 (MFH-ino): < 5.70
pIC50 (MHH-NB-11): 6.14
pIC50 (MKN-1): 5.76
pIC50 (MPP-89): 5.88
pIC50 (MZ2-MEL): 5.84
pIC50 (NCI-H1693): < 5.70
pIC50 (NCI-H1993): < 5.70
pIC50 (NCI-H2405): < 5.70
pIC50 (NCI-H292): 6.94
pIC50 (NCI-H358): < 5.70
pIC50 (SH-4): < 5.70
pIC50 (SK-MEL-2): < 5.70
pIC50 (SK-MES-1): 6.09
pIC50 (SW1783): < 5.70
pIC50 (SW 962): < 5.70
pIC50 (T-24): 7.10
pIC50 (T98G): 5.76
pIC50 (TE-1): < 5.70
pIC50 697: 7.97
pIC50 (786-0): 6.17
pIC50 (A-375): 6.40
pIC50 (A704): < 5.70
pIC50 (AGS): 6.04
pIC50 (ASPC1): 5.86
pIC50 (BB65-RCC): 6.96
pIC50 (BEN): < 5.70
pIC50 (BFTC-905): 6.97
pIC50 (CAL-12T): < 5.70
pIC50 (CAL-27): 5.71
pIC50 (TE-11): < 5.70
pIC50 (TE-8): 6.66
pIC50 (UMUC3): 6.47
pIC50 (no-10): < 5.70
pIC50 (CHL-1): 5.98

CC(=O)O[C@@]12CO[C@@H]1C[C@H](O)[C@@]1(C)C(=O)[C@H](O)C3=C(C)[C@@H](OC(=O)[C@H](O)[C@@H](NC(=O)OC(C)(C)C)c4ccccc4)C[C@@](O)([C@@H](OC(=O)c4ccccc4)[C@H]21)C3(C)C [DOCETAXEL]
pIC50 (COLO-829): 8.14
pIC50 (Calu-3): < 8.00
pIC50 (Calu-6): 8.35
pIC50 (D-247MG): 8.76
pIC50 (D283 Med): 8.20
pIC50 (EGI-1): 8.44
pIC50 (EOL1): 8.76
pIC50 (G-402): 9.15
pIC50 (GOTO): 8.64
pIC50 (HCC2218): < 8.00
pIC50 (HH): < 8.00
pIC50 (HT-29): 8.55
pIC50 (HuP-T3): < 8.00
pIC50 (KLE): < 8.00
pIC50 (KP-N-YS): < 8.00
pIC50 (LAMA-84): < 8.00
pIC50 (LOX IMVI): 8.93
pIC50 (LS-1034): < 8.00
pIC50 (MFH-ino): < 8.00
pIC50 (MHH-NB-11): < 8.00
pIC50 (MKN-1): < 8.00
pIC50 (MPP-89): 8.25
pIC50 (MZ2-MEL): 8.18
pIC50 (NCI-H1693): < 8.00
pIC50 (NCI-H1993): < 8.00
pIC50 (NCI-H2405): < 8.00
pIC50 (NCI-H292): 9.80
pIC50 (NCI-H358): 8.12
pIC50 (SH-4): 8.49
pIC50 (SK-MEL-2): 8.77
pIC50 (SK-MES-1): 8.63
pIC50 (SW1783): 8.24
pIC50 (SW 962): 8.53
pIC50 (T-24): < 8.00
pIC50 (T98G): 8.93
pIC50 (TE-1): 8.67
pIC50 697: 8.76
pIC50 (786-0): 8.10
pIC50 (A-375): 8.92
pIC50 (A704): < 8.00
pIC50 (AGS): 8.48
pIC50 (ASPC1): 8.17
pIC50 (BB65-RCC): 8.51
pIC50 (BEN): < 8.00
pIC50 (BFTC-905): 9.57
pIC50 (CAL-12T): 8.42
pIC50 (CAL-27): 9.47
pIC50 (TE-11): 9.25
pIC50 (TE-8): 9.44
pIC50 (UMUC3): < 8.00
pIC50 (no-10): 8.10
pIC50 (CHL-1): 9.02
